Reference: patent publication US6573246B1, “Modified ether glyceroglycolipids” (The Liposome Company, Inc., priority 1995, dated 2003)
Read-outs that look alike come from different tables or passages of the source. Each block holds one molecule with its values, some of them ahead of it.

How the values were obtained:
[1] = system: MCF-7 (breast adenocarcinoma) cells; assay: growth inhibition of MCF-7 cells in culture; format: cell-based, human
Experimental: (§1) Human epithelial cancer cell lines were grown from frozen stocks originally obtained from the ATCC, in media commonly used for growing these cells in culture. For example, A549 cells (non-small cell lung adenocarcinoma) were cultured in Ham's F-12 medium, T84 cells (colon carcinoma) were cultured in a 1:1 mixture of F-12 and DMEM while MCF-7 (breast adenocarcinoma) and A427 (large cell lung carcinoma) cells were cultured in DMEM. The media were supplemented with 10% fetal bovine serum, penicillin (50 U/ml), streptomycin (50 micogram/ml) and fungizone (0.5 microgram/ml). OVCAR-3 cells (ovarian adenocarcinoma) were cultured in RPMI 1640 medium supplemented with 20% FBS and 10 microgram/ml insulin.
(§2) Cells were subcultured into 24-well plates and the cell number was monitored daily. When the cells were in log phase, the media was replaced with one containing the required drug concentration, and the cells were incubated for 72 h. The increase in cell numbers relative to control wells (without any drug) was determined after the incubation. Stock solutions of the drugs ([…]) were prepared in ethanol and stored at −20 deg. C. Etherlipid solutions (30 micromolar) in the appropriate media were prepared fresh on the day of the experiment and serially diluted to give the required concentrations. The final concentration of ethanol in all wells was 0.1% (v/v).
(§3) Gl50 values are given as the mean ± standard deviation; the Gl50 value from each experiment “n” was generated from three individual wells on two separate plates (six total wells); n=1 for compounds 3-6; n=2 for most cell lines treated with compound 2 ^an=3; ^bn=2; ^cn=6; ^dn=8.

[2] = system: A549 cells (non-small cell lung adenocarcinoma); assay: growth inhibition of A549 cells in culture; format: cell-based, human
Experimental: as §1, §2, §3

[3] = system: MCF-7/Adr (adriamycin-resistant) cells; assay: growth inhibition of MCF7/adr cells in culture; format: cell-based, human; details: mean ± standard deviation, read-out: Gl50 (concentration of lipid required to inhibit the growth of fifty percent of the cells in culture)
Experimental: (§4) The Gl50 values for edelfosine (1), 2′-deoxy-β-D-arabinopyranosyl (2), 2′-deoxy-α-D-arabinopyranosyl (3), 2-O-methyl-β-D-glucopyranosyl (4), 2′-O-methyl-β-D-mannopyranosyl (5) and α-D-mannopyransoyl (6) on A-549, MCF-7, Lewis Lung, MCF-7/Adr (adriamycin-resistant), P388, P-388/Adr, L1210 and L1210/vmdr cells were determined and are set forth below (see Table 4) as the concentration (micromolar) of lipid required to inhibit the growth of fifty percent of the cells in culture.
as §3

[4] = system: Lewis Lung cells; assay: growth inhibition of Lewis Lung cells in culture; format: cell-based, murine; details: mean ± standard deviation, read-out: Gl50 (concentration of lipid required to inhibit the growth of fifty percent of the cells in culture)
Experimental: as §4, §3

[5] = system: P388 cells; assay: growth inhibition of P388 cells in culture; format: cell-based, murine; details: mean ± standard deviation, read-out: Gl50 (concentration of lipid required to inhibit the growth of fifty percent of the cells in culture)
Experimental: as §4, §3

[6] = system: P-388/Adr cells; assay: growth inhibition of P388/adr cells in culture; format: cell-based, murine; details: mean ± standard deviation, read-out: Gl50 (concentration of lipid required to inhibit the growth of fifty percent of the cells in culture)
Experimental: as §4, §3

[7] = system: OVCAR-3 cells (ovarian adenocarcinoma); assay: growth inhibition of OVCAR-3 cells in culture; format: cell-based, human; details: for IC50: OVCAR-3 ovarian cancer cell line, read-out: Gl50 (the source's name); for growth: increase in cell numbers relative to control wells (control = 100): OVCAR-3, 72 h
Experimental: as §1, §2

[8] = system: HT29 cells; assay: growth inhibition of HT29 cells in culture; format: cell-based; details: mean ± standard deviation, read-out: Gl50 (concentration of lipid required to inhibit the growth of fifty percent of the cells in culture)
[9] = system: L1210 cells; assay: growth inhibition of L1210 cells in culture; format: cell-based; details: mean ± standard deviation, read-out: Gl50 (concentration of lipid required to inhibit the growth of fifty percent of the cells in culture)
Experimental: as §4, §3

[10] = system: L1210/vmdr cells; assay: growth inhibition of L1210/vmdr cells in culture; format: cell-based; details: mean ± standard deviation, read-out: Gl50 (concentration of lipid required to inhibit the growth of fifty percent of the cells in culture)
Experimental: as §4, §3

[11] = system: T84 cells (colon carcinoma); assay: growth inhibition of T84 cells in culture; format: cell-based, human
Experimental: as §1, §2

[12] = system: A427 (large cell lung carcinoma) cells; assay: growth inhibition of A427 cells in culture; format: cell-based, human
Experimental: as §1, §2

[13] = MCF7, mean ± standard deviation, read-out: Gl50 (concentration of lipid required to inhibit the growth of fifty percent of the cells in culture)
[14] = mean ± standard deviation, read-out: Gl50 (concentration of lipid required to inhibit the growth of fifty percent of the cells in culture)
[15] = 72 h, 10% FBS-supplemented medium, read-out: Gl50 (concentration that inhibited cell growth by 50% in comparison to control cultures)
[16] = lipid concentration 10 μM, 72 h
[17] = lipid concentration 12.5 μM, 72 h
[18] = lipid concentration 15 μM, 72 h
[19] = lipid concentration 20 μM, 72 h
[20] = lipid concentration 6.5 μM, 72 h
[21] = lipid concentration 8.0 μM, 72 h

IC50 [1, 13]: 23.1 ± 0.64 µM
IC50 [2, 14]: 18.3 ± 0.14 µM
IC50 [3]: 21.8 ± 0.63 µM
IC50 [5]: 18.1 ± 1.13 µM
IC50 [6]: 29.3 ± 5.66 µM
SMILES: CCCCCCCCCCCCCCCCOC[C@H](CO[C@@H]1O[C@H](CO)[C@@H](O)[C@H](O)[C@H]1OC)OC [compound 4, 1-O-Hexadecyl-2-O-methyl-3-O-(2′-methyl-β-D-glucopyransoyl)-sn-glycerol]
IC50 [4]: 26 ± 0.71 µM

IC50 ([7]; Homo sapiens): > 30 µM
SMILES: CCCCCCCC/C=C\CCCCCCCCCCCCOP(=O)([O-])OCC[N+](C)(C)C [E, erucylphosphocholine]
growth: increase in cell numbers relative to control wells (control = 100) ([7]; lipid concentration 5 μM): 104.0 ± 12.2
growth: increase in cell numbers relative to control wells (control = 100) ([7]; lipid concentration 10 μM): 102.3 ± 16.1
growth: increase in cell numbers relative to control wells (control = 100) ([7]; lipid concentration 15 μM): 98.6 ± 7.8
growth: increase in cell numbers relative to control wells (control = 100) ([7]; lipid concentration 20 μM): 90.2 ± 6.6
growth: increase in cell numbers relative to control wells (control = 100) ([7]; lipid concentration 30 μM): 60 ± 10.7

IC50 [1, 13]: 18.2 µM
IC50 [2, 14]: 15.55 ± 0.07 µM
IC50 [3]: 18.55 ± 0.07 µM
IC50 [8]: 20 ± 0.28 µM
IC50 [9]: 15.5 ± 0.35 µM
IC50 [10]: 16.5 ± 1.13 µM
SMILES: CCCCCCCCCCCCCCCCOC[C@H](CO[C@H]1O[C@H](CO)[C@@H](O)[C@H](O)[C@@H]1OC)OC [compound 5, 1-O-Hexadecyl-2-O-methyl-3-O-(2′-O-methyl-α-D-mannopyransoyl)-sn-glycerol]

IC50 ([1]; MCF-7, 72 h, 10% FBS-supplemented medium, read-out: Gl50 (concentration that inhibited cell growth by 50% in comparison to control cultures)): 6.5 µM
IC50 [11, 15]: 12.2 µM
IC50 [2, 15]: 8.3 µM
IC50 [12, 15]: 7 µM
IC50 [7]: 12 µM
SMILES: CCCCCCCCCCCCCCCCOC[C@H](CO[C@@H]1O[C@H](CO)[C@@H](O)[C@H](O)[C@H]1N)OC [A, 1-O-hexadecyl-2-O-methyl-3-O-(2′-amino-2′-deoxy-β-D-glucopyranosyl)-sn-glycerol]
concentration cytotoxic to the cells ([1]; MCF-7, 10% FBS-supplemented medium): 16 µM
proliferation: increase in cell numbers relative to control wells (control = 100) ([1]; MCF-7, lipid concentration 5 μM, 72 h): 60.60 ± 7.14
proliferation: increase in cell numbers relative to control wells (control = 100) ([1]; MCF-7, lipid concentration 6.5 μM, 72 h): 44.05 ± 11.70
proliferation: increase in cell numbers relative to control wells (control = 100) ([1]; MCF-7, lipid concentration 8.0 μM, 72 h): 31.46 ± 5.56
proliferation: increase in cell numbers relative to control wells (control = 100) ([1]; MCF-7, lipid concentration 10 μM, 72 h): 14.42 ± 8.39
proliferation: increase in cell numbers relative to control wells (control = 100) ([1]; MCF-7, lipid concentration 12.5 μM, 72 h): 3.90 ± 5.75
proliferation: increase in cell numbers relative to control wells (control = 100) ([1]; MCF-7, lipid concentration 15 μM, 72 h): 0
proliferation: increase in cell numbers relative to control wells (control = 100) ([1]; MCF-7, lipid concentration 20 μM, 72 h): 0
concentration cytotoxic to the cells ([11]; 10% FBS-supplemented medium): 20 µM
proliferation: increase in cell numbers relative to control wells (control = 100) ([11]; lipid concentration 5 μM, 72 h): 89.71 ± 12.72
proliferation: increase in cell numbers relative to control wells (control = 100) ([11]; lipid concentration 7.5 μM, 72 h): 75.16 ± 10.79
proliferation: increase in cell numbers relative to control wells (control = 100) [11, 16]: 64.89 ± 11.56
proliferation: increase in cell numbers relative to control wells (control = 100) [11, 17]: 39.59 ± 9.50
proliferation: increase in cell numbers relative to control wells (control = 100) [11, 18]: 15.06 ± 7.23
proliferation: increase in cell numbers relative to control wells (control = 100) [11, 19]: 0
concentration cytotoxic to the cells ([2]; 10% FBS-supplemented medium): 10.5 µM
proliferation: increase in cell numbers relative to control wells (control = 100) ([2]; lipid concentration 5 μM, 72 h): 82.28 ± 4.66
proliferation: increase in cell numbers relative to control wells (control = 100) [2, 20]: 67.39 ± 6.18
proliferation: increase in cell numbers relative to control wells (control = 100) [2, 21]: 45.17 ± 12.06
proliferation: increase in cell numbers relative to control wells (control = 100) [2, 16]: 0
proliferation: increase in cell numbers relative to control wells (control = 100) [2, 17]: 0
proliferation: increase in cell numbers relative to control wells (control = 100) [2, 18]: 0
proliferation: increase in cell numbers relative to control wells (control = 100) [2, 19]: 0
concentration cytotoxic to the cells ([12]; 10% FBS-supplemented medium): 10.5 µM
proliferation: increase in cell numbers relative to control wells (control = 100) ([12]; lipid concentration 5 μM, 72 h): 68.98 ± 9.25
proliferation: increase in cell numbers relative to control wells (control = 100) [12, 20]: 49.74 ± 5.16
proliferation: increase in cell numbers relative to control wells (control = 100) [12, 21]: 4.29 ± 5.16
proliferation: increase in cell numbers relative to control wells (control = 100) [12, 16]: 0
proliferation: increase in cell numbers relative to control wells (control = 100) [12, 17]: 0
proliferation: increase in cell numbers relative to control wells (control = 100) [12, 18]: 0
proliferation: increase in cell numbers relative to control wells (control = 100) [12, 19]: 0
growth: increase in cell numbers relative to control wells (control = 100) ([7]; lipid concentration 5 μM): 42.9 ± 13.4
growth: increase in cell numbers relative to control wells (control = 100) ([7]; lipid concentration 10 μM): 7.7 ± 2.3
growth: increase in cell numbers relative to control wells (control = 100) ([7]; lipid concentration 15 μM): 0
